Each structure is given as a SMILES string.

The target of test [1] is T1, 3-hydroxy-3-methylglutaryl-coenzyme A reductase (Rattus norvegicus, UniProt P51639).
T1 sequence (P51639 whole entry): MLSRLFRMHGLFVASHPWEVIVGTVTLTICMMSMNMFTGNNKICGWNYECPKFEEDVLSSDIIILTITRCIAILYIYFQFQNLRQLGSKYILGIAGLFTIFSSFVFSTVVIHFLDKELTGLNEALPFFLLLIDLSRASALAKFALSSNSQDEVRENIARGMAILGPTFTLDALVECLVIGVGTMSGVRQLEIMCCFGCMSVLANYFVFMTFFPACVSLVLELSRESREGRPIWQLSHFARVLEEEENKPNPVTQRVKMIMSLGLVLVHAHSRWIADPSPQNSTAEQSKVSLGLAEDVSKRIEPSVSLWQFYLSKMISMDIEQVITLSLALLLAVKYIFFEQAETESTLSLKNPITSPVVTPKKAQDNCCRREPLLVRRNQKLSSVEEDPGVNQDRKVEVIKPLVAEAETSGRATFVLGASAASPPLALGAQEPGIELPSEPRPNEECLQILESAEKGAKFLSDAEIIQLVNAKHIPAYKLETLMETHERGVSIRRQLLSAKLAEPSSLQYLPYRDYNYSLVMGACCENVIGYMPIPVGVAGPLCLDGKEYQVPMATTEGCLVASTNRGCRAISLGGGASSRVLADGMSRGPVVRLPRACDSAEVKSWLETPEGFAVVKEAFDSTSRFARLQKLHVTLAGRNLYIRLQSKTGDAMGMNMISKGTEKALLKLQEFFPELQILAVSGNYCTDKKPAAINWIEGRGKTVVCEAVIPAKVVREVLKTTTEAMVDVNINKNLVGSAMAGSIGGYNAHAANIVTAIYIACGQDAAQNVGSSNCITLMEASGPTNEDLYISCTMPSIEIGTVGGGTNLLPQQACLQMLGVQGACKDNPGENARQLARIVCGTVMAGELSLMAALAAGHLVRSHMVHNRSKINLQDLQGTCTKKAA
Description: Inhibition of rat microsomal HMG-CoA reductase activity by 50%. Conditions: read-out: I50.

Test [2] has as its system Rattus norvegicus. Put plainly: Inhibitory activity for de novo cholesterol synthesis from [14C]acetate was determined in rat after oral administration (in vivo). It is filed as functional.
Test [3] is filed under the species Rattus norvegicus. Put plainly: Compound was tested for 50% inhibition of cholesterol synthesis in isolated rat hepatocytes. Format: functional. Conditions: Hepatocyte, read-out: I50.
The test system of test [4] is Rattus norvegicus. Description: Inhibitory activity for de novo cholesterol synthesis from [14C]acetate was determined in rat after intravenous administration (in vivo). Format: functional.
For another test, the species on record is Homo sapiens. Description: Compound was tested for 50% inhibition of cholesterol synthesis in human skin fibroblasts. It is filed as functional. Conditions: read-out: I50.

On to `Cc1cc(C)c(CCCP(=O)(O)C[C@@H](O)CC(=O)O)c(-c2ccc(F)c(C)c2)c1`, for which the IC50 in test [1] amounted to 150000 nM. Turning to `COP(=O)(C[C@@H](O)CC(=O)O)OCc1c(C)cc(C)cc1-c1ccc(F)c(C)c1` (stereo partly specified), the IC50 in test [1] is 21600 nM. Same read-out and setting: next, `COP(=O)(C[C@@H](O)CC(=O)O)NCc1c(C)cc(C)cc1-c1ccc(F)c(C)c1` (stereo partly specified): 70500 nM; `Cc1cc(C)c(/C=C/P(=O)(O)C[C@@H](O)CC(=O)O)c(-c2ccc(F)c(C)c2)c1`: 6.7 nM. For `CCc1c(CCP(=O)(O)C[C@@H](O)CC(=O)O)n(-c2ccc(F)cc2)c2ccccc12`, in test [1], the IC50 worked out at 13 nM. Consider `Cc1cc(-c2ccc(F)c(C)c2)c(CCP(=O)(O)C[C@@H](O)CC(=O)O)c(C(C)C)c1`, for which the IC50 in test [1] was found to be 3.8 nM. Turning to `Cc1cc(-c2ccc(F)c(C)c2)c(C#CP(=O)(O)C[C@@H](O)CC(=O)O)c(C(C)C)c1`, the IC50 in test [1] is 8.5 nM. On the same count and under the same terms, to `COP(=O)(CCc1c(C)cc(C)cc1-c1ccc(F)c(C)c1)C[C@@H](O)CC(=O)O` (stereo partly specified) belongs 4600 nM. On to `CC(C)c1c(C#CP(=O)(O)C[C@@H](O)CC(=O)O)n(-c2ccc(F)cc2)c2ccccc12`, for which the 50% effective dose (ED50) (as a rule, the dose that gives a 50% effect, or the effect in half of the subjects) with Rattus norvegicus [2] is 1.1 mg/kg; with Rattus norvegicus [4] it was 0.09 mg/kg. The values for the IC50 (in the test listed under Rattus norvegicus [3]; in the test filed under Homo sapiens; in test [1]) were 93 nM, 8900 nM and 2.2 nM, respectively. In the case of `Cc1cc(C)c(/C=C\P(=O)(O)C[C@@H](O)CC(=O)O)c(-c2ccc(F)c(C)c2)c1`, the IC50 in test [1] is 3000 nM. In the case of `Cc1cc(C)c(COP(=O)(O)C[C@@H](O)CC(=O)O)c(-c2ccc(F)c(C)c2)c1`, the ED50 in the test on Rattus norvegicus [2] is above 10 mg/kg; in the test on Rattus norvegicus [4], 0.14 mg/kg. In addition, the IC50 in the test filed under Rattus norvegicus [3] turned out to be 260 nM; in the test filed under Homo sapiens, 327000 nM; in test [1], 162 nM. With `CCc1c(C#CP(=O)(O)C[C@@H](O)CC(=O)O)n(-c2ccc(F)cc2)c2ccccc12`, the IC50 in test [1] came out at 87.5 nM. Regarding `O=C(O)C[C@H](O)CP(=O)(O)C#CC1=C(c2ccc(F)cc2)c2ccccc2C12CCCCC2`, the IC50 in test [1] was 3 nM.

On to `CC(C)c1c(/C=C/P(=O)(O)C[C@@H](O)CC(=O)O)n(-c2ccc(F)cc2)c2ccccc12`, for which the IC50 in test [1] was found to be 1.9 nM. In the case of `CC[C@H](C)C(=O)O[C@H]1C[C@@H](C)C=C2C=C[C@H](C)[C@H](CC[C@@H](O)C[C@@H](O)CC(=O)[O-])[C@H]21.[Na+]`, the ED50 in the test on Rattus norvegicus [2] was 0.4 mg/kg; in the test with Rattus norvegicus [4] it was 0.033 mg/kg. In addition, the figures for the IC50 in the test listed under Rattus norvegicus [3] and in the test filed under Homo sapiens were 146 nM and 19 nM, respectively. In the case of `O=C(O)C[C@H](O)CP(=O)(O)C#CC1=C(c2ccc(F)cc2)c2ccccc2C12CCCC2`, the ED50 in the test on Rattus norvegicus [2] came to 0.38 mg/kg; in the test with Rattus norvegicus [4], 0.027 mg/kg. Moreover, the IC50 was 245 nM in the test filed under Rattus norvegicus [3], 11000 nM in the test listed under Homo sapiens and 2.8 nM in test [1]. For the compound `Cc1cc(-c2ccc(F)c(C)c2)c(COP(=O)(O)C[C@@H](O)CC(=O)O)c(C(C)C)c1`, in test [1], the IC50 came to 1.2 nM. As to `Cc1cc(C)c(C#CP(=O)(O)C[C@@H](O)CC(=O)O)c(-c2ccc(F)c(C)c2)c1`, the IC50 in test [1] stood at 297 nM. The same measure, in the same setting: next, `CC(C)n1c(CCP(=O)(O)C[C@@H](O)CC(=O)O)c(-c2ccc(F)cc2)c2ccccc21`: 24 nM; `CC(C)c1c(CCP(=O)(O)C[C@@H](O)CC(=O)O)n(-c2ccc(F)cc2)c2ccccc12`: 120 nM; `O=C(O)C[C@H](O)CP(=O)(O)/C=C/C1=C(c2ccc(F)cc2)c2ccccc2C12CCCC2`: 2.1 nM. With `CC(C)n1c(/C=C/P(=O)(O)C[C@@H](O)CC(=O)O)c(-c2ccc(F)cc2)c2ccccc21`, the IC50 in test [1] is 26 nM. On to `O=C(O)C[C@H](O)CP(=O)(O)C#CC1=C(c2ccc(F)cc2)c2ccccc2C12CC2`, for which the IC50 in test [1] was 70 nM. For the compound `Cc1cc(C)c(CCP(=O)(O)C[C@@H](O)CC(=O)O)c(-c2ccc(F)c(C)c2)c1`, the ED50 in the test with Rattus norvegicus [2] was found to be 6.7 mg/kg; in the test with Rattus norvegicus [4], 0.05 mg/kg. The IC50 worked out at 85 nM in the test listed under Rattus norvegicus [3], 64000 nM in the test filed under Homo sapiens and 15 nM in test [1]. In the case of `CC(C)n1c(C#CP(=O)(O)C[C@@H](O)CC(=O)O)c(-c2ccc(F)cc2)c2ccccc21`, the IC50 in test [1] was determined as 6 nM. For `Cc1cc(C)c(CP(=O)(O)C[C@@H](O)CC(=O)O)c(-c2ccc(F)c(C)c2)c1`, the IC50 in test [1] was determined as 89300 nM. Turning to `Cc1cc(C)c(OCP(=O)(O)C[C@@H](O)CC(=O)O)c(-c2ccc(F)c(C)c2)c1`, in test [1], the IC50 came to 4500 nM.

For the compound `CC[C@H](C)C(=O)O[C@H]1C[C@H](O)C=C2C=C[C@H](C)[C@H](CC[C@@H](O)C[C@@H](O)CC(=O)[O-])[C@H]21.[Na+]` [PRAVASTATIN SODIUM], the ED50 in the test on Rattus norvegicus [2] was 0.75 mg/kg; with Rattus norvegicus [4] it was 0.053 mg/kg. In addition, the IC50 was 100 nM in the test filed under Rattus norvegicus [3], 3100 nM in the test filed under Homo sapiens and 26 nM in test [1].

Source of the values: ChEMBL document CHEMBL1125000, “Phosphorus-containing inhibitors of HMG-CoA reductase. 1. 4-[(2-arylethyl)hydroxyphosphinyl]-3-hydroxy-butanoic acids: a new class of cell-selective inhibitors of cholesterol biosynthesis” (J Med Chem, 1990).
